For 16 compounds, TGI and GI50 results are on record in PubChem BioAssay (NCI).

Holding throughout (experiment): NCI anticancer screen, dose series, 48 h
Experiment [1] relates to HCT-116 colon.
Experiment [2] deals with HOP-92 NSCLC.
The subject of experiment [3] is LOX IMVI melanoma.
The test system of experiment [4] is NCI-H226 lung.
Experiment [5] deals with OVCAR-5 ovarian.
Experiment [6] deals with SF-295 CNS.
The test system of experiment [7] is SF-539 CNS.
In experiment [8] the test system is U251 CNS.
In experiment [9] the test system is UACC-257 melanoma.

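Dose response: 5 concentrations. Exposure: 48 h. Format: 96-well plates. Endpoint: linear interpolation; highest concentration if not reached. GI50: concentration for 50% inhibition of growth. Definition used: TGI = concentration required for complete inhibition of growth.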

Regarding `Cc1ccc(NC(=O)C(=O)CC(=O)c2c(C)n([O-])c3ccccc3[n+]2=O)cc1C`, the TGI in experiment [1], in experiment [2], in [3], in [4], in experiment [5] and in [6] was more than 100 µM throughout. The TGI in experiment [7], in [8] and in experiment [9] was more than 100 µM in each case.

Take `CCCCCCCC1(c2ccc(N)cc2)CCC(=O)NC1=O` (centres undefined): the TGI is 51.9 µM in experiment [2]; more than 100 µM in experiment [3]; more than 100 µM in [5]; 88.1 µM in [6]; more than 100 µM in experiment [9].

`CC1OC(=O)C(O)=C1O` (centres undefined): the TGI in [1], in [2], in experiment [3], in experiment [4], in experiment [5] and in [6] was more than 100 µM each time. The TGI in experiment [7], in experiment [8] and in [9] was more than 100 µM in each case.

On to `CCN(CC)CC1CCCCN1CC(=O)N1CC(C)C(=O)Nc2ccccc21` (centres undefined), for which the TGI in [1], in experiment [2], in experiment [3], in experiment [4], in experiment [5] and in [6] was more than 100 µM in each case. Besides, the TGI in experiment [8] and in experiment [9] was more than 100 µM throughout.

`CC1=C(C(=O)Nc2ccccc2)C(c2ccccc2Cl)C(C(=O)Nc2ccccc2)=C(C)N1`: the TGI came to 47.6 µM in experiment [1]; 45.2 µM in [2]; 33.6 µM in experiment [3]; 59 µM in experiment [4]; 61.2 µM in experiment [5]; 66.9 µM in [6]. For the same compound, the results for the TGI in experiment [7], in [8] and in experiment [9] were 37.6 µM, 35.8 µM and 38.5 µM, respectively.

As to `Clc1ccc(-c2c3ccc(=[N+]4CCCCC4)cc-3oc3cc(N4CCCCC4)ccc23)cc1`, in [5], the GI50 is 0.145 µM and the TGI is 0.323 µM. For the same compound, in [9], the GI50 was 0.13 µM and the TGI is 0.304 µM.

Consider `O=C(O)CCNS(=O)(=O)c1ccc2ccccc2c1`, for which the TGI in experiment [2], in experiment [3], in experiment [4], in [5], in experiment [6] and in experiment [7] was more than 100 µM each time. Besides, the TGI in experiment [8] and in experiment [9] was more than 100 µM in each case.

On to `C1CCCCc2nc3c(nc2CCC1)c1nc2c(nc1c1nc4c(nc31)CCCCCCCC4)CCCCCCCC2`, for which the TGI in [1], in experiment [2], in [3], in experiment [5], in [6] and in experiment [7] was more than 100 µM throughout. The TGI in experiment [8] and in [9] was more than 100 µM in each case.

As to `COCCOc1cc(C)cc(/C=C(C)/C=C/C2=C(C)CCCC2(C)C)n1`, the TGI in [1], in experiment [2], in experiment [3], in [4], in experiment [5] and in [6] was more than 100 µM throughout. Further, the TGI in experiment [7], in experiment [8] and in [9] was more than 100 µM in each case.

Take `COc1ccc(C2=Nc3ccccc3SC(C)C2)cc1OC` (centres undefined): the TGI in [1] was 32.1 µM; in experiment [2], more than 100 µM; in [3], 32.9 µM; in experiment [4], 36.6 µM; in experiment [5] it was 52.6 µM; in [6] it was 38 µM. Further, the TGI came out at 30.9 µM in experiment [8] and 49.6 µM in experiment [9].

With `N#CC(C(=O)CCCC(=O)Nc1ccc(Cl)cc1Cl)c1ccccc1` (centres undefined), the TGI in [1], in [2], in [3], in [4], in experiment [5] and in experiment [6] was more than 100 µM throughout. The TGI in experiment [7], in experiment [8] and in [9] was more than 100 µM throughout.

Turning to `O=C(C(=O)n1ncc(Cl)c(Cl)c1=O)n1ncc(Cl)c(Cl)c1=O`, the TGI was 29.5 µM in [1]; 49.9 µM in experiment [2]; more than 100 µM in [3]; more than 100 µM in [4]; more than 100 µM in experiment [5]; more than 100 µM in experiment [6]. Further, the TGI in experiment [7] is more than 68.8 µM; in experiment [8] it was more than 100 µM; in [9], 35.7 µM.

`CCCCCC(=O)Nc1nc2nc[nH]c2c(=O)[nH]1`: the TGI in [1], in experiment [2], in experiment [4], in experiment [5], in experiment [6] and in experiment [7] was more than 100 µM throughout. Also, the TGI in experiment [8] and in [9] was more than 100 µM in each case.

As to `COC1CC(O)C(OC(=O)c2ccccc2)C(C)O1` (centres undefined), the TGI in experiment [1], in experiment [2], in experiment [3], in experiment [4], in [5] and in experiment [6] was more than 100 µM each time. In addition, the TGI in experiment [7] and in experiment [8] was more than 100 µM throughout.

`COc1ccc2oc3c(OC)c(OC)c(OC)cc3c(=O)c2c1`: the TGI in experiment [1], in [3], in experiment [5], in [7], in experiment [8] and in experiment [9] was more than 100 µM throughout.

For `Cc1ccc(C)c(N2C(=O)C(=O)C(c3nc4ccccc4o3)C(=O)C2=O)c1`, the TGI was 90.5 µM in experiment [1]; more than 100 µM in experiment [2]; more than 100 µM in [4]; more than 100 µM in [6]; more than 100 µM in [7]; more than 100 µM in experiment [8]. This compound also gave a TGI in experiment [9] of more than 100 µM.
